Results on 61 compounds are retold here after BindingDB's records for doi:10.7270/Q2TX3CTT (Broad Institute, 2010).

Chain of Glycogen synthase kinase-3 beta (P49841 whole entry): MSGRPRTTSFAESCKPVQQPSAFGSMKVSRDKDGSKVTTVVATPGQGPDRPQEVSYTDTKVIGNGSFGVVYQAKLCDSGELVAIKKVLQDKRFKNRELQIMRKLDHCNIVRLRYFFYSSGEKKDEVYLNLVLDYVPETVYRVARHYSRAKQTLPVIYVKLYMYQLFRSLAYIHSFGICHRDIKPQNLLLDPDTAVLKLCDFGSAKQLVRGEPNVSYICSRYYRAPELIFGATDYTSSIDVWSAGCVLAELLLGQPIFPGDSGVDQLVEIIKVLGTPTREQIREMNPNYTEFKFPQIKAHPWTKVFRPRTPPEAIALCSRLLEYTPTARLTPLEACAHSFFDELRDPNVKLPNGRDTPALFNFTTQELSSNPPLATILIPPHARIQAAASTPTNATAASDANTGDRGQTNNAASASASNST

The assay concerns the target Glycogen synthase kinase-3 beta (Homo sapiens, UniProt P49841). Briefly: GSK3beta kinase inhibitor potency, dose response, biochemical, luminescence, cell-free homogeneous, retest (AID 434954).
For `Cc1ccc(-c2nn(-c3ccccc3)cc2C=NNC(=O)c2ccc(Br)o2)cc1`, the EC50 (usually the midpoint of the concentration-response curve) is greater than 300 µM.
Next, `CC(=O)Oc1cc(C)cc2oc(=O)cc(-c3ccccc3)c12`: greater than 300 µM.
`COc1ccc2occ(C(=O)c3ccccc3)c2c1` [(5-methoxy-1-benzofuran-3-yl)-phenyl-methanone] gave an EC50 of 22.9 µM.
On to `c1ccc(CNCC2COc3ccccc3O2)cc1` (stereo unspecified) [Benzyl-(2,3-dihydro-benzo[1,4]dioxin-2-ylmethyl)-amine], for which the EC50 is greater than 300 µM.
Regarding `Nc1ccc(C(=O)Nc2ccccc2C(=O)O)cc1`, the EC50 was greater than 300 µM.
For the compound `Cc1nn(Cc2ccc(Cl)c(Cl)c2)c(C)c1NC(=O)c1noc2c1CCCCC2` [SMR000023628], the EC50 was greater than 300 µM.
The result for `Cc1ccc(C(=O)NN=Cc2ccc(-c3ccc(Cl)c(Cl)c3)o2)cn1` [SMR000431370] reads greater than 300 µM; that for `O=C(CSCCc1ccccn1)Nc1ccc(Br)cn1`, 17.7 µM.
Next, `CCCn1c(SCC(=O)Nc2ccccc2OC)nnc1-c1ccco1`: greater than 300 µM; `COCCn1c(SCC(=O)NC(C)c2ccccc2)nc2ccccc21` (stereo unspecified) [SMR000590006]: greater than 300 µM.
As to `CCCOc1ccc(-c2c(C(=O)NN=C(C)c3ccco3)nnn2-c2nonc2N)cc1`, the EC50 was found to be 16.6 µM.
For `COc1ccc2c(c1)-c1c(sn(-c3ccc(OC)c(OC)c3)c1=S)C(C)(C)N2`, the EC50 was greater than 300 µM.
In turn, `Oc1ccc(N2CCN(C(=S)NCCc3ccccc3)CC2)cc1` [SMR000199335] showed an EC50 greater than 300 µM.
The result for `C=CCn1c(=O)c(C(=O)NCc2ccc(Cl)cc2)c(O)c2ccccc21` [N-[(4-chlorophenyl)methyl]-2-hydroxy-4-oxo-1-prop-2-enyl-3-quinolinecarboxamide] reads greater than 300 µM; that for `Cc1onc(-c2ccccc2Cl)c1C(=O)NNC(=O)c1ccc(F)cc1` [MLS001223650], greater than 300 µM; that for `N#Cc1c(-c2ccccc2)nc(SCC(=O)N(c2ccccc2)c2ccccc2)[nH]c1=O` [2-[(5-cyano-6-oxo-4-phenyl-1,6-dihydro-2-pyrimidinyl)thio]-N,N-diphenylacetamide], greater than 300 µM.
Turning to `CC(C)=CCc1cc([C@@H]2CC(=O)c3ccc(O)c(CC=C(C)C)c3O2)ccc1O` [MLS000697605], the EC50 was 58.4 µM.
Consider `Cc1cccc(N2CCN(C(=O)c3csc4ccccc34)CC2C)c1` (stereo unspecified) [4-(1-benzothien-3-ylcarbonyl)-2-methyl-1-(3-methylphenyl)piperazine], for which the EC50 was greater than 300 µM.
In the case of `Cc1cc(C)n2nc(C(=O)NN=Cc3ccc(O)cc3)nc2n1` [5,7-dimethyl-N'-[(4-oxocyclohexa-2,5-dien-1-ylidene)methyl]-[1,2,4]triazolo[1,5-a]pyrimidine-2-carbohydrazide], the response was half-maximal at 15.4 µM (EC50).
`CCC(CC)NC(=O)COC(=O)c1ccc2c(c1)C(=O)N(Cc1ccco1)C2=O` [2-(2-furanylmethyl)-1,3-dioxo-5-isoindolecarboxylic acid [2-oxo-2-(pentan-3-ylamino)ethyl] ester] showed an EC50 greater than 300 µM.
The result for `O=C(O)COc1ccc2oc3ccccc3c2c1` [SMR000243853] reads greater than 300 µM.
`Cc1ccccc1-n1nnc2c(=O)oc3ccccc3c21` [1-(2-methylphenyl)chromeno[3,4-d]triazol-4-one] showed an EC50 greater than 300 µM.
Regarding `COc1ccccc1/C=C/C=C1\Oc2c(ccc(O)c2CN(C)C)C1=O` [(2Z)-7-[(dimethylamino)methyl]-6-hydroxy-2-[(E)-3-(2-methoxyphenyl)prop-2-enylidene]-1-benzofuran-3-one], the EC50 is 33.8 µM.
For `CCOC(=O)C1C(=CN2CCSCC2)NC(=O)NC1c1cc(C)ccc1C` (stereo unspecified) [MLS000052412], the EC50 is greater than 300 µM.
The compound `Cc1ccccc1CSc1nc2n(n1)C(c1cccs1)C1C(=O)CCCC1=N2` (stereo unspecified) [2-[(2-methylphenyl)methylsulfanyl]-9-thiophen-2-yl-5,6,7,9-tetrahydro-1H-[1,2,4]triazolo[5,1-b]quinazolin-8-one] yielded an EC50 greater than 300 µM.
With `CC1(C)CC(=O)C=C(Nc2ccccc2F)C1` [SMR000105669], the EC50 was greater than 300 µM.
Next, `CC(C)C(=O)NC(=S)Nc1ccc(S(=O)(=O)N2CCCC2)cc1` [SMR000231524]: greater than 300 µM.
In the case of `COc1cccc(C(=O)CN2C=CC=CC2=CN=O)c1` [2-[(hydroxyimino)methyl]-1-[2-(3-methoxyphenyl)-2-oxoethyl]pyridinium], the EC50 was greater than 300 µM.
The compound `CCCN(CCC)Cc1c(C(=O)NN=Cc2ccc(Br)cc2)nnn1-c1nonc1N` [1-(4-azanyl-1,2,5-oxadiazol-3-yl)-N-[(4-bromophenyl)methylideneamino]-5-[(dipropylamino)methyl]-1,2,3-triazole-4-carboxamide] registered a concentration for a half-maximal effect (EC50) greater than 300 µM.
For the compound `Nc1nonc1-n1nnc(C(=O)NN=Cc2ccccc2)c1CN1CCc2ccccc21` [1-(4-amino-1,2,5-oxadiazol-3-yl)-5-(2,3-dihydroindol-1-ylmethyl)-N-[(phenylmethylene)amino]-4-triazolecarboxamide], the EC50 turned out to be 3.62 µM.
As to `CNCCCOc1cc(C)cc(C)c1C` [N-methyl-3-(2,3,5-trimethylphenoxy)propan-1-amine;oxalic acid], the EC50 is greater than 300 µM.
Compound `CC(=O)Oc1ccc2occ(C(=O)c3cccs3)c2c1` [SMR000106284] had an EC50 greater than 300 µM.
The result for `Cc1nc(Nc2ccccc2)sc1C` [4,5-dimethyl-N-phenyl-1,3-thiazol-2-amine] reads greater than 300 µM.
The compound `O=C(C1CCCN(S(=O)(=O)c2ccccc2)C1)N1CCN(c2ncccn2)CC1` (stereo unspecified) [[1-(phenylsulfonyl)piperidin-3-yl]-(4-pyrimidin-2-ylpiperazin-1-yl)methanone] returned an EC50 greater than 300 µM.
Next, `Cc1oc2ccc(OC(=O)c3cccs3)cc2c1C(=O)OC(C)C` [2-Methyl-5-(thiophene-2-carbonyloxy)-benzofuran-3-carboxylic acid isopropyl ester]: greater than 300 µM.
As to `CC1CCCCN1c1cc(C#N)c(C#N)cc1[N+](=O)[O-]` (stereo unspecified) [4-(2-methyl-1-piperidinyl)-5-nitrophthalonitrile], the half-maximal effective concentration (EC50) is greater than 300 µM.
Compound `COc1ccc(S(=O)(=O)NCC(c2ccc3c(c2)OCO3)N2CCOCC2)cc1` (stereo unspecified) [N-[2-(1,3-benzodioxol-5-yl)-2-morpholin-4-ylethyl]-4-methoxybenzenesulfonamide] registered an EC50 greater than 300 µM.
Regarding `CCOC(=O)c1nnn(-c2nonc2N)c1CSc1ccccc1` [ethyl 1-(4-amino-1,2,5-oxadiazol-3-yl)-5-[(phenylthio)methyl]-1H-1,2,3-triazole-4-carboxylate], the 50% effective concentration (EC50) was 14.7 µM.
`O=C(CSc1nnc(COc2ccc(Cl)cc2)o1)N1c2ccccc2CCc2ccccc21` [2-[5-(4-Chloro-phenoxymethyl)-[1,3,4]oxadiazol-2-ylsulfanyl]-1-(10,11-dihydro-dibenzo[b,f]azepin-5-yl)-ethanone] registered an EC50 greater than 300 µM.
For `COc1ccc(C2CC(=O)N3CN(c4ccc(C)c(Cl)c4)CSC3=C2C#N)cc1` (stereo unspecified), the EC50 was greater than 300 µM.
In the case of `CC(C)=CCc1c(O)ccc2c1OC(c1ccc(O)c(O)c1)CC2=O` (stereo unspecified) [2-(3,4-dihydroxyphenyl)-7-hydroxy-8-(3-methylbut-2-enyl)-2,3-dihydrochromen-4-one], it took 4.58 µM to reach a half-maximal effect (EC50).
Compound `CCN(CC)Cc1c(C(=O)NN=Cc2ccccn2)nnn1-c1nonc1N` came in with an EC50 of 9.91 µM.
`CC[n+]1c(/C=C/N(C)c2ccccc2)oc2ccc(Cl)cc21` [SMR000184374]: the EC50 is greater than 300 µM.
The compound `CCc1cc2c(s1)NC(=O)CN=C2c1cccs1` returned an EC50 of 32.7 µM.
Next, `CC(=O)c1sc(NC(=O)CCNC(=O)c2ccco2)nc1-c1ccccc1`: 3.03 µM.
The result for `COc1ccc(Nc2nc3ccc(OC)cc3s2)cc1` [MLS000684722] reads greater than 300 µM.
Compound `COc1ccc(-c2c(C)oc3ccc(C)cc23)cc1` [MLS000562305] had a concentration for a half-maximal effect (EC50) greater than 300 µM.
For `CCN(CC)CCNC(=O)C(=O)Nc1ccc2c(c1)N(S(=O)(=O)c1cccs1)CCC2` [N-[2-(diethylamino)ethyl]-N'-(1-thiophen-2-ylsulfonyl-3,4-dihydro-2H-quinolin-7-yl)oxamide], the EC50 is greater than 300 µM.
Compound `COCCOC(=O)C(C#N)c1nc2ccccc2nc1N1CCN(Cc2ccccc2)CC1` (stereo unspecified) [MLS000078656] yielded a concentration for a half-maximal effect (EC50) greater than 300 µM.
Compound `CCN(c1ccccc1)S(=O)(=O)c1cc(NC(=O)Nc2ccccc2C#N)ccc1Cl` [MLS000395038] gave an EC50 greater than 300 µM.
Next, `COc1ccc2c(C)c(CC(=O)N3CCN(C(=O)C4COc5ccccc5O4)CC3)c(=O)oc2c1` (stereo unspecified): greater than 300 µM; `Cc1ccc(C(=O)/C=C/c2ccc3ncccc3c2)cc1` [SMR000516943]: greater than 300 µM.
Next, `O=C(O)c1cccc(-c2ccc(CN=Nc3ccc([N+](=O)[O-])cc3)o2)c1` [MLS000777078]: greater than 300 µM.
Compound `COc1ccccc1N1CCN(CCCNC(=O)C2CCCN(c3ncnc4c3nc3n4CCCCC3)C2)CC1` (stereo unspecified) [N-[3-[4-(2-methoxyphenyl)piperazin-1-yl]propyl]-1-(7,8,9,10-tetrahydro-6H-purino[9,8-a]azepin-4-yl)piperidine-3-carboxamide] displayed an EC50 of 156 µM.
For `COc1ccc(NC(=O)Nc2ccccn2)cc1OC` [N-(3,4-dimethoxyphenyl)-N'-2-pyridinylurea], the EC50 is greater than 300 µM.
In turn, `Nc1nc(NCCCN2CCOCC2)nc(NCc2ccccc2)c1[N+](=O)[O-]` [N'-Benzyl-N-(3-morpholin-4-yl-propyl)-5-nitro-pyrimidine-2,4,6-triamine] gave an EC50 of 8.32 µM.
Consider `CCCCc1cc(=O)oc2cc(C)c(CN3CCCC3)c(O)c12` [4-butyl-7-methyl-5-oxidanyl-6-(pyrrolidin-1-ylmethyl)chromen-2-one], for which the EC50 was greater than 300 µM.
`COc1cc(NC2=CC(=O)CC(C)(C)C2)cc(OC)c1OC` [5,5-dimethyl-3-(3,4,5-trimethoxyanilino)-1-cyclohex-2-enone]: the EC50 was greater than 300 µM.
The compound `CN(Cc1c(C(=O)NN=Cc2cccc(F)c2)nnn1-c1nonc1N)c1ccccc1` [MLS001141039] registered an EC50 of 15.6 µM.
The result for `COc1ccc2nc(NC(=O)CCNC(=O)c3ccccc3Cl)sc2c1` [2-chloro-N-[3-[(6-methoxy-1,3-benzothiazol-2-yl)amino]-3-oxopropyl]benzamide] reads greater than 300 µM.
Next, `COc1ccc(CN(CC(=O)NCc2ccccc2)C(=O)CCC(=O)Nc2ccccn2)cc1`: greater than 300 µM.
